Data published in patent publication US5198433A, “Lactamimides as calcium antagonists” (Merrell Dow Pharmaceuticals Inc., priority 1992, dated 1993).

Key:
[1] = molecular target: [^3 H]d-cis-diltiazem binding to rat whole brain membranes (calcium ion-channel protein); assay: [^3 H]d-cis-Diltiazem binding assay (displacement from rat whole brain membranes); design: species or system rat (male Sprague-Dawley); conditions: for IC50: ligand […]
Experimental: The whole brain from male Sprague-Dawley rats (200-300 g) was dissected and homogenized in cold 50 mM Tris-HCl buffer (pH 7.4) for 2 x 30 second periods by Polytron (Brinkmann, setting No. 5). The homogenate was washed 2 times (48,000 ×g for 10 minutes, 4° C.) with intermittent resuspension of the pellet in fresh buffer. The final pellet was resuspended to an original tissue concentration of 100 mg/ml in Tris-HCl buffer. […] The reaction was terminated by rapid filtration under a vacuum through 0.05% polyethylenimine-pretreated Whatman GF/B glass fiber filters. Filters were immediately washed 2 times with 4 ml of cold Tris-HCl buffer. Pretreatment of the filters with 0.05% polyethylenimine served to eliminate [^3 H]d-cis-diltiazem binding to the filter. The filters were dried and the radioactivity in the filters was extracted overnight in scintillation fluid.

[2] = molecular target: T1, [^3 H]nitrendipine binding to rat heart membranes (calcium ion-channel protein) (Rattus norvegicus, UniProt P22002); assay: [^3 H]Nitrendipine binding assay (enhancement of binding to rat heart membranes); design: species or system rat (male Sprague-Dawley); conditions: ligand 0.1 nM, mean ± SEM; for activity at 1 µM: 10^-6 M; for activity at 0.1 µM: 10^-7 M
T1 construct: Membranes were prepared from the hearts of male Sprague-Dawley rats; from tissue; host or cells: heart membranes of male Sprague-Dawley rats
T1 sequence (P22002 whole entry, other chains not shown): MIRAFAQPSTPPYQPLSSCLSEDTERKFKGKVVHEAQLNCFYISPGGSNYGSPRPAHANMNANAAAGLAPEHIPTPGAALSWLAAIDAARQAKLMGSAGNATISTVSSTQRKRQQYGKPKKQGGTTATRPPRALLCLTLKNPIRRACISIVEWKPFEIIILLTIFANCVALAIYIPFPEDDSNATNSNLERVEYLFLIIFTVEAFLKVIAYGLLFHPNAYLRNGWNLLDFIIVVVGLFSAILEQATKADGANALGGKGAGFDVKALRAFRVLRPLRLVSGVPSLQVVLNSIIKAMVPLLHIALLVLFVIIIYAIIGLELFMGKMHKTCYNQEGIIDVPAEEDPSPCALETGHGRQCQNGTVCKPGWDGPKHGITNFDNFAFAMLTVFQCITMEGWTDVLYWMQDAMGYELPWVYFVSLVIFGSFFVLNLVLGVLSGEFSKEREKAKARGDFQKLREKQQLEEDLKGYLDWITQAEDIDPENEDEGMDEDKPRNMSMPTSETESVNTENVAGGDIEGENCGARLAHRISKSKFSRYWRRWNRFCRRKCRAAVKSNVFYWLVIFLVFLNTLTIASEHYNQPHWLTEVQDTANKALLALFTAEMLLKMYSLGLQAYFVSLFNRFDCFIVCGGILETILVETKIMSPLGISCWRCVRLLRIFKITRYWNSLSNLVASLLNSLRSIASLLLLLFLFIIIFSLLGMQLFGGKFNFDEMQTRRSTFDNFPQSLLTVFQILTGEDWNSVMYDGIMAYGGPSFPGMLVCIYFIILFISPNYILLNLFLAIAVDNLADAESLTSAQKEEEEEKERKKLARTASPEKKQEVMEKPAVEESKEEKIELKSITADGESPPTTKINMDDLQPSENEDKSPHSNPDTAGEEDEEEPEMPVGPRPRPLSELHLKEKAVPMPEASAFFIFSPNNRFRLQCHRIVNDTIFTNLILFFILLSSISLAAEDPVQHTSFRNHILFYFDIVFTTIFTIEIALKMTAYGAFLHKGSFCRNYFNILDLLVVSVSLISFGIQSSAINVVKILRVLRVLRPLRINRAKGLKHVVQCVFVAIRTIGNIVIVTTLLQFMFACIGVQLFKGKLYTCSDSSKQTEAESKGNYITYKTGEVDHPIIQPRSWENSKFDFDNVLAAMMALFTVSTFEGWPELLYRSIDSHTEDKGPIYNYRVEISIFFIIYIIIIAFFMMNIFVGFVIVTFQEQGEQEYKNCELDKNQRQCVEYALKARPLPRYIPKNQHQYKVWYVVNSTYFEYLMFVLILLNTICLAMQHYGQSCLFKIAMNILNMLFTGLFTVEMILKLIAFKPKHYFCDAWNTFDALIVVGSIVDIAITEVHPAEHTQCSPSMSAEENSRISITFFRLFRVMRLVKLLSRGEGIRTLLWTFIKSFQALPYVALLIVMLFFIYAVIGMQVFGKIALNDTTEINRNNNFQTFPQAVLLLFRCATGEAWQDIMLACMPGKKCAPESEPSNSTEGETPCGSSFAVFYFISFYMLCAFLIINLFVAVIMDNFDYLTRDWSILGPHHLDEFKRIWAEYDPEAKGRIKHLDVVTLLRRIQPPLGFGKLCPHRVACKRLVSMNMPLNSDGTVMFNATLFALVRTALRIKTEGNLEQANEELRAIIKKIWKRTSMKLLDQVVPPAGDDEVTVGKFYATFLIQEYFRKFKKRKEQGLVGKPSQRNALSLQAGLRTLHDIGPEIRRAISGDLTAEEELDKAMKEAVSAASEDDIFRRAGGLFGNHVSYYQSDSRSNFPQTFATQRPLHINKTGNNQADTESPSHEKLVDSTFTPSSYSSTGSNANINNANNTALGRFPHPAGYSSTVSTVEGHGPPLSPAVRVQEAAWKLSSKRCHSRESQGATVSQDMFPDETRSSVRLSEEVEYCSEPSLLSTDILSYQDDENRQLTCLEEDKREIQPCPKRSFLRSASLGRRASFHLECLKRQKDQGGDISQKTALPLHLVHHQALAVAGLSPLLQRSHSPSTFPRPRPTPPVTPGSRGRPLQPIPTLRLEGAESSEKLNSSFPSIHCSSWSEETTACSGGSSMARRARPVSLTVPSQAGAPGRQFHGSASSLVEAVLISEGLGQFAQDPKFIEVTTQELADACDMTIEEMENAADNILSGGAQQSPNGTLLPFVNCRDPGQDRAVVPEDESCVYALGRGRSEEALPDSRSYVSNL
T1 sequence (P54290 25-945 partner limits assumed, other chains not shown): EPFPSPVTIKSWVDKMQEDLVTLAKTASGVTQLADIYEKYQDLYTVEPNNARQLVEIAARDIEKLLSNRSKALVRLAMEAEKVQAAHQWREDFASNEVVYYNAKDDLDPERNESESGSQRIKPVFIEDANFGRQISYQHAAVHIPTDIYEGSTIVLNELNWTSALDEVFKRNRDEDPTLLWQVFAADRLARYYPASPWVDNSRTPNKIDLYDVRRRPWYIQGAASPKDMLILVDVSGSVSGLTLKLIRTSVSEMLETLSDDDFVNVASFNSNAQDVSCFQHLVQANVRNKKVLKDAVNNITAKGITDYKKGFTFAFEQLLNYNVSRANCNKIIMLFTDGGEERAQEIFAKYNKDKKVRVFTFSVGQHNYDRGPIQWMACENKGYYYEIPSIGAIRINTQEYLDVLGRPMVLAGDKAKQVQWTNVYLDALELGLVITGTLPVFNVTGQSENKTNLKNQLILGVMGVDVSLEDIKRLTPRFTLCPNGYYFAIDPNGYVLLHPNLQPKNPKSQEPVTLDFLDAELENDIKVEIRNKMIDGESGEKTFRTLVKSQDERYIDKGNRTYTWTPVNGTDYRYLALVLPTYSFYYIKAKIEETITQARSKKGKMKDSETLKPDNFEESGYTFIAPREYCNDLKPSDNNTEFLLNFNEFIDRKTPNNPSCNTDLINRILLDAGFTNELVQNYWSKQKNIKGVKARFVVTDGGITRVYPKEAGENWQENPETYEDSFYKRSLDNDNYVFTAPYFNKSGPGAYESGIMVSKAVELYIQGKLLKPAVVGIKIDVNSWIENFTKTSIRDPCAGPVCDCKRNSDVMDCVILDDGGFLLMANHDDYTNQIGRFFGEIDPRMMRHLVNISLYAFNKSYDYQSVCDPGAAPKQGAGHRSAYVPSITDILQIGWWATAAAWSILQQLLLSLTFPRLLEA
T1 sequence (P54290 946-1091 partner limits assumed, other chains not shown): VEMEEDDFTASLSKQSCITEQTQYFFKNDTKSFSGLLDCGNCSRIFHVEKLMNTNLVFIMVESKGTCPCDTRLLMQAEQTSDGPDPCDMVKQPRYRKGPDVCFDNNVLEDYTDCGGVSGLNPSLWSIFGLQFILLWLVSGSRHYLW
Experimental: Membranes were prepared from the hearts of male Sprague-Dawley rats and [^3 H]nitrendipine binding was conducted as described in detail by H. R. Lee, et al., J. Pharmacol Exp. Ther. 233:611-616, (1985), as modified by F. J. Ehlert, et al., Biochem. Biophys. Rec. Common. 104:937-943, (1982). The ability of compounds tested at 10^-6 and 10^-7 M to enhance [^3 H]nitredepine binding was taken as indicative of diltiazem-like calcium antagonistic properties.
Values are the mean ± SEM of single experiments run in triplicate at
the concentrations of drugs indicated. Ligand concentration was 0.1 nM an
control specific binding was 49.6 ± 1.7 fmol/mg protein.

[3] = molecular target: T2, K^+ -depolarized guinea pig ileum or taenia (Cavia porcellus); assay: Antagonism of Ca^++ -induced contractions of K^+ -depolarized guinea pig taenia or ileum; format: cell-based; conditions: FIG. 6; 40 mM K^+ -depolarized guinea pig ileum
T2 construct: pieces of ileum, 2 cm in length, from male guinea pigs (200-400 g) were set up in isolated organ baths; from tissue; host or cells: strips of taenia from the caecum or pieces of ileum of male guinea pigs
Experimental: Strips of taenia from the caecum or pieces of ileum, 2 cm in length, from male guinea pigs (200-400 g) were set up in isolated organ baths in Ca^++ -free K^+ Tyrode's solution (mM NaCl 137, KCl 40, NaH2 PO4 0.4, NaHCO3 11.9, glucose 5.5) and gassed with 95% O2, 5% CO2 at 37° C. Contractions were measured with isotonic transducers with a 1 g load. Cumulative dose-response curves were obtained. Tissues were then washed and incubated with the compounds for 20-25 minutes and then Ca^++ concentration response curves re-established. […] Dose ratios were determined graphically at ED50 values from the Ca^++ dose-response curve and Schild plots were constructed to determine pA2 value using inverse regression line analysis. Alternatively, when only one concentration of an antagonist was used, pA2 values were calculated according to the method of J. M. Van Rossum, Arch. Int. Pharmacodyn Ther. 143: 299-330 (1963).

[4] = test system: [3H]nitrendipine binding in rat cerebral cortical and cardiac homogenates; conditions: cited from earlier work
adenylate cyclase = conditions: a number of tissues; cited from earlier work
[5] = test system: isolated guinea pig hearts; conditions: cited from earlier work
calcium currents = conditions: potency compared with diltiazem; cited from earlier work

Q: With c1ccc([C@H]2CCC[C@H]2N=C2CCCCCCCCCCCN2)cc1 (relative stereo) [Test Compound 3, 2-[(cis-2-phenylcyclopentyl)imino]azacyclotridecane] as the compound, how does the IC50 ([1]; 25° C.) read?
A: 280 ± 30 nM

Q: What about the IC50 ([1]; 37° C.) of the same compound?
A: 403 ± 77 nM

Q: What about the pKi ([1]; Table 1, displacement of 3H diltiazem, rat brain membranes, 25° C., n = 3, Cheng & Prusoff) of the same compound?
A: 6.41

Q: And the activity at 1 µM ([2]; 25° C.)?
A: 112 ± 2%

Q: And the activity at 0.1 µM ([2]; 25° C.)?
A: 102 ± 1%

Q: What about the activity at 1 µM ([2]; 37° C.) of the same compound?
A: 165 ± 13%

Q: What about the activity at 0.1 µM ([2]; 37° C.) of the same compound?
A: 141 ± 8%

Q: What about the “mean pA2 value (95% confidence interval), Schild plot” value [3] of the same compound?
A: 6.66 (6.31-7.44)

Q: And the “mean slope (±S.D.) of Schild plot” value [3]?
A: 0.89 (0.16)

Q: And the “effect on [3H]nitrendipine binding” value [4]?
A: enhanced [3H]nitrendipine binding in rat cerebral cortical and cardiac homogenates in a similar manner to diltiazem

Q: What about the “inhibition of stimulated adenylate cyclase activity” value (adenylate cyclase) of the same compound?
A: inhibit stimulated adenylate cyclase activity in a number of tissues

Q: And the “reversal of inotropic and chronotropic effects by calcium” value ([5]; administration of calcium)?
A: reversed by the administration of calcium

Q: What about the “inotropic and chronotropic effects” value [5] of the same compound?
A: negative inotropic and chronotropic effects

Q: And the “effect on calcium currents” value (calcium currents)?
A: selectively reduced calcium currents with a potency similar to diltiazem
